This is an account of results in patent publication US20150352134A1, “COMPOSITION FOR TOPICAL SKIN APPLICATION CONTAINING GINSENOSIDE F2 DERIVED FROM HYDROPONIC GINSENG” (AMOREPACIFIC CORPORATION, priority 2012, published 2015).

The test system of experiment [1] is Keratinocytes isolated from the human epidermal tissue. The experiment is described as follows: Inhibition of reactive oxygen species formation after UVB (DCF-DA fluorescence). Format: cell-based. To be noted: 1% ginsenoside F2; for ratio to the ROS of the control group, elapsed time after exposure to 30 mJ/cm^2 of UVB 0 hr: 0 hr after 30 mJ/cm^2 UVB; for ratio to the ROS of the control group, elapsed time after exposure to 30 mJ/cm^2 of UVB 2 hrs: 2 hrs after 30 mJ/cm^2 UVB; for ratio to the ROS of the control group, elapsed time after exposure to 30 mJ/cm^2 of UVB 3 hrs: 3 hrs after 30 mJ/cm^2 UVB. On the procedure:
5×10^4 Keratinocytes isolated from the human epidermal tissue are put in each well of a 24-well plate and immobilized for 24 hours. After 16 hours, the keratinocytes are treated with 1% ginsenoside F2. For a comparison, the control group is not treated with ginsenoside F2. Each well is removed of the culture medium after 2 hours and then fed with 100 μl of a phosphate-buffered saline (PBS) solution. The keratinocytes are exposed to 30 mJ/cm^2 of ultraviolet radiation under an ultraviolet B (UVB) lamp (Model: F15T8, UV B 15 W, Sankyo Denki Co., Ltd., Japan). Each well is removed of the PBS solution and then supplied with 200 μl of the keratinocyte culture medium. The well is treated with ginsenoside F2 again. Then, the quantity of the reactive oxygen species (ROS) increased by the UV stimulation is determined at defined time intervals. The quantity of the reactive oxygen species (ROS) is determined according to the method that includes measuring the fluorescence of dichlorofluorescin diacetate (DCF-DA) (Tan et al., 1998, J. Cell Biol. Vol. 141, pp 1423-1432).

The test system of the next experiment is B16/F10 melanoma cells. The experiment is described as follows: Melanogenesis inhibition in B16/F10 melanoma cells. Format: cell-based. To be noted: sample containing 0.001 wt. % of test substance; 3-day cultivation. On the procedure:
As a test substance, a sample containing 0.001 wt. % of ginsenoside F2 or kojic acid is added to a culture medium of B16/F10 melanoma cells (available from Korean Cell Line Bank) at a predetermined concentration. The culture medium is eliminated after 3-day cultivation. The cells are washed with PBS and dissolved in 1N NaOH. Then, the absorbance at 405 nm is measured. The control is the cells not treated with any test substance. In comparison with the melanin content in the control group, the inhibitory ability of each test substance against melanogenesis is measured. […] [formula]

Experiment [2] relates to procollagen type (I) in fibroblasts. Nature of the experiment: Collagen biosynthesis in fibroblasts (procollagen type (I) ELISA). Format: cell-based. To be noted: 10 ng/ml, 24 hours; non-treated group = 100%. As to the method: The ginsenoside F2 of the present invention is compared with TGF-β in regards to the effect of promoting biosynthesis of collagen. Firstly, fibroblasts are seeded in 24 wells at a rate of 10^5 per well and cultured until the growth reaches 90%. The fibroblasts are cultured in a non-serum culture medium for 24 hours, treated with each 10 ng/ml of ginsenoside F2 or TGF-β dissolved in the non-serum culture medium, and then cultured in a CO2 incubator for 24 hours. The supernatant liquid is collected to determine an increase or decrease of procollagen using a procollagen type (I) ELISA kit. The collagen synthesis ability is denoted with respect to 100% for the non-treated group.
A general note: In an ELISA, binding on a coated surface is turned into a signal by an enzyme label.

The test system of experiment [3] is DP6 (rat immortalized dermal papilla cell) line. Nature of the experiment: Proliferation of hair follicle dermal papilla cells (WST-1). Format: cell-based. To be noted: 24 hours, not treated control = 100. An excerpt: The keratin protein constituting hair is produced by the keratinocytes in the hair roots, and the keratinocytes are differentiated from the hair papilla cells. To evaluate the composition of the present invention in regards to the effect to enhance the activity of hair papilla cells, the present invention uses DP6 (rat immortalized dermal papilla cell) line (Wendy Filsell, Journal of Cell Science 107, 1761-1772 (1994)). The hair papilla cells used in the present invention are a cell line isolated from the hair roots of male PVG rats by the microdissection method and cultured with DMEM (Dulbecco's modified eagle's medium, Gibco BRL, Gaithersburg, Md., U.S.A.) containing 10% FBS (Fetal Bovine Serum) in an incubator under the conditions of 5% CO2 and 37° C. for 24 hours. DP6 is put in the 96-well plate, cultured in an incubator at 37° C. for 24 hours and treated with the ginsenoside F2 of the present invention independently at a concentration of 5 ppm, 10 ppm, or 20 ppm. 24 hours after the treatment, the cell proliferation ability is measured using a WST-1 kit (Roche).
(Tetrazolium assays rely on reduction of a dye to a coloured formazan, in cell work by metabolically active cells.)

Experiment [4] relates to potassium ion channels (KATP channels). The experiment is described as follows: KATP channel opener test: recovery of NIH3T3 proliferation blocked by tolbutamide (WST-1). Format: cell-based, mouse. The note with it: 48 hours. An excerpt: Minoxidil, a treatment for hair loss, is known as a potassium ion channel opener (KATP channel opener) potentially acting on mitochondria and a representative drug used for treatment of androgenic alopecia (hair loss). A testing method used to evaluate the action of minoxidil includes treating with tolbutamide (SIGMA-ALDRICH, T0891) blocking the potassium ion channels (KATP channels) in fibroblasts constituting the corium of scalp to inhibit cell proliferation and then opening the potassium ion channels (KATP channels) to resume the cell proliferation. In order to evaluate the function of the composition of the present invention as a KATP channel opener, the present invention uses a mouse embryonic fibroblast cell line, NIH3T3, as fibroblasts. The cell line is obtained by naturally immortalizing a fibroblast cell line isolated from an NIH Swiss mouse embryo with 3T3 protocol. The cell line is cultured with DMEM (Dulbecco's modified eagle's medium, Gibco BRL, Gaithersburg, Md., U.S.A.) containing 10% FBS (Fetal Bovine Serum) in an incubator under the conditions of 5% CO2 and 37° C. for 24 hours.

Another experiment deals with MITF. The experiment is described as follows: MITF expression in melanocytes (Western Blot). Format: cell-based. To be noted: 501me1 cell line, IBMX 100 μM, ginsenoside 10 ppm. On the procedure:
501me1 cell line is injected in each well of a 6-well microtiter plate at a rate of 500,000 cells/well. The cell line in each well is treated with 0.1% of DMSO as the negative control group, 100 μM of IBMX as the positive control group, or ginsenoside 10 ppm of F2 as the test group, and cultured at 37° C. for 24 hours, 48 hours, or 72 hours, to obtain proteins. The proteins thus obtained are subjected to Western Blot using MITF and tyrosinase antibodies. Protein extraction and Western Blot are performed using the standard methods known in the art.
In general terms: Immunoblotting shows a protein as a band on a membrane.

Where [5] appears, read: 2.5 ppm after 2.5 mM tolbutamide.
Where [6] appears, read: 10 ppm after 2.5 mM tolbutamide.

With `CC(C)=CCC[C@](C)(O[C@@H]1O[C@H](CO)[C@@H](O)[C@H](O)[C@H]1O)[C@H]1CC[C@]2(C)[C@@H]1[C@H](O)C[C@@H]1[C@@]3(C)CC[C@H](O[C@@H]4O[C@H](CO)[C@@H](O)[C@H](O)[C@H]4O)C(C)(C)[C@@H]3CC[C@]12C` [Ginsenoside F2, ginsenoside F2], the “ratio to the ROS of the control group, elapsed time after exposure to 30 mJ/cm^2 of UVB 0 hr” value in experiment [1] is given as 100. For the same compound, the “ratio to the ROS of the control group, elapsed time after exposure to 30 mJ/cm^2 of UVB 2 hrs” value in experiment [1] was determined as 251. In experiment [1], the “ratio to the ROS of the control group, elapsed time after exposure to 30 mJ/cm^2 of UVB 3 hrs” value was 286. In the experiment on B16/F10 melanoma cells, the “Melanogenesis inhibition rate (%)” value is 72%. The “Collagen synthesis ability (%)” value in experiment [2] amounted to 191.6%. Moreover, the “Cell proliferation ability (%)” value in experiment [3] (5 ppm) amounted to 116%; in experiment [3] (10 ppm) it was 122%; in experiment [3] (20 ppm) it was 138%; in experiment [4] (setting [5]), 115%; in experiment [4] (5 ppm after 2.5 mM tolbutamide), 120%; in experiment [4] (setting [6]), 131%. The results for the “MITF (Western Blot, in comparison with 100 of the negative control group)” value in the experiment on MITF (24 hrs), in the experiment with MITF (48 hrs) and in the experiment with MITF (72 hrs) were 92, 120 and 162, respectively.
Consider `CC(C)=CCC[C@](C)(O[C@@H]1O[C@H](CO[C@@H]2O[C@H](CO)[C@@H](O)[C@H](O)[C@H]2O)[C@@H](O)[C@H](O)[C@H]1O)[C@H]1CC[C@]2(C)[C@@H]1[C@H](O)C[C@@H]1[C@@]3(C)CC[C@H](O[C@@H]4O[C@H](CO)[C@@H](O)[C@H](O)[C@H]4O[C@@H]4O[C@H](CO)[C@@H](O)[C@H](O)[C@H]4O)C(C)(C)[C@@H]3CC[C@]12C` [Ginsenoside Rb1], for which, in experiment [1], the “ratio to the ROS of the control group, elapsed time after exposure to 30 mJ/cm^2 of UVB 0 hr” value worked out at 100. For the same compound, the “ratio to the ROS of the control group, elapsed time after exposure to 30 mJ/cm^2 of UVB 2 hrs” value in experiment [1] was found to be 302. For the same compound, in experiment [1], the “ratio to the ROS of the control group, elapsed time after exposure to 30 mJ/cm^2 of UVB 3 hrs” value worked out at 354. For the same compound, the “Melanogenesis inhibition rate (%)” value in the experiment with B16/F10 melanoma cells was 61%. Moreover, the “Collagen synthesis ability (%)” value in experiment [2] came to 188.3%. Besides, the “Cell proliferation ability (%)” value in experiment [3] (5 ppm) stood at 114%; in experiment [3] (10 ppm), 118%; in experiment [3] (20 ppm) it was 127%; in experiment [4] (setting [5]), 113%; in experiment [4] (5 ppm after 2.5 mM tolbutamide) it was 117%; in experiment [4] (setting [6]), 124%. Also, the results for the “MITF (Western Blot, in comparison with 100 of the negative control group)” value in the experiment with MITF (24 hrs), with MITF (48 hrs) and in the experiment on MITF (72 hrs) were 93, 116 and 144, respectively.
